Results reported in the supplement of paper PMC10307832.

Key:
Experiment in all cases: relative viability (nuclei count vs DMSO), 5 days (fraction); higher = more cells survive
Carboplatin + Luminespib = compound: C1CC(C1)(C(=O)O)C(=O)O.[NH2-].[NH2-].[Pt+2] [Carboplatin] + CCNC(=O)c1noc(-c2cc(C(C)C)c(O)cc2O)c1-c1ccc(CN2CCOCC2)cc1 [Luminespib] (partner 0.01 µM)
In short: (§1)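 Lung cancer cell lines were seeded in 1536-well plates and dosed by pin tool the next day, with either a single drug or a fixed anchor-drug dose combined with five library-drug doses (not always all listed) spaced in √10 steps. Five days later, one step fixed the cells and stained their nuclei (final 0.05% Triton X-100, 1% formaldehyde, 1 ug/ml Hoechst), and nuclei were counted on 4× images. Relative viability is the nuclei count in treated wells divided by the count in vehicle wells, and each value is the median of duplicate plates.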

GSK126 + Vorinostat = compound: CC[C@H](C)N1C=C(C2=C(C=C(C=C21)C3=CN=C(C=C3)N4CCNCC4)C(=O)NCC5=C(C=C(NC5=O)C)C)C [GSK126] + O=C(CCCCCCC(=O)Nc1ccccc1)NO [Vorinostat] (partner 1 µM)
In short: as §1

MLN4924 + Pictilisib = compound: NS(=O)(=O)OC[C@@H]1C[C@@H](n2ccc3c(N[C@H]4CCc5ccccc54)ncnc32)C[C@@H]1O [MLN4924] + CS(=O)(=O)N1CCN(Cc2cc3nc(-c4cccc5[nH]ncc45)nc(N4CCOCC4)c3s2)CC1 [Pictilisib] (partner 1 µM)
In short: as §1

MLN4924 + Vorinostat = compound: NS(=O)(=O)OC[C@@H]1C[C@@H](n2ccc3c(N[C@H]4CCc5ccccc54)ncnc32)C[C@@H]1O [MLN4924] + O=C(CCCCCCC(=O)Nc1ccccc1)NO [Vorinostat] (partner 1 µM)
In short: as §1

| Cell Line | relative viability (Carboplatin + Luminespib; first compound 0.08 µM) | relative viability (Carboplatin + Luminespib; first compound 0.253 µM) | relative viability (Carboplatin + Luminespib; first compound 0.8 µM) | relative viability (Carboplatin + Luminespib; first compound 2.53 µM) | relative viability (Carboplatin + Luminespib; first compound 8 µM) | relative viability (GSK126 + Vorinostat; first compound 0.08 µM) | relative viability (GSK126 + Vorinostat; first compound 0.253 µM) | relative viability (GSK126 + Vorinostat; first compound 0.8 µM) | relative viability (GSK126 + Vorinostat; first compound 2.53 µM) | relative viability (GSK126 + Vorinostat; first compound 8 µM) | relative viability (MLN4924 + Pictilisib; first compound 0.04 µM) | relative viability (MLN4924 + Pictilisib; first compound 0.1265 µM) | relative viability (MLN4924 + Pictilisib; first compound 0.4 µM) | relative viability (MLN4924 + Pictilisib; first compound 1.265 µM) | relative viability (MLN4924 + Pictilisib; first compound 4 µM) | relative viability (MLN4924 + Vorinostat; first compound 0.04 µM) | relative viability (MLN4924 + Vorinostat; first compound 0.1265 µM) | relative viability (MLN4924 + Vorinostat; first compound 0.4 µM) | relative viability (MLN4924 + Vorinostat; first compound 1.265 µM) | relative viability (MLN4924 + Vorinostat; first compound 4 µM) |
| --- | --- | --- | --- | --- | --- | --- | --- | --- | --- | --- | --- | --- | --- | --- | --- | --- | --- | --- | --- | --- |
| NCI-H2347 | 0.573 | 0.421 | 0.368 | 0.432 | 0.352 | 0.659 | 0.479 | 0.503 | 0.601 | 0.563 | 0.841 | 0.895 | 0.387 | 0.324 | 0.369 | 0.494 | 0.562 | 0.433 | 0.347 | 0.327 |
| NCI-H2405 | 0.813 | 0.838 | 0.591 | 0.606 | 0.724 | 1.12 | 0.933 | 1.01 | 1.05 | 1.04 | 0.452 | 0.73 | 0.505 | 0.246 | 0.254 | 0.861 | 0.849 | 0.411 | 0.181 | 0.19 |
| NCI-H3122 | 0.102 | 0.0787 | 0.0812 | 0.09 | 0.0968 | 1.14 | 1.15 | 0.933 | 1.06 | 1.18 | 0.591 | 0.376 | 0.222 | 0.153 | 0.136 | 0.708 | 0.579 | 0.232 | 0.103 | 0.0771 |
| PC-3 [JPC-3] | 0.807 | 0.749 | 0.616 | 0.716 | 0.703 | 0.949 | 0.82 | 0.806 | 1 | 0.825 | 0.904 | 0.817 | 0.334 | 0.251 | 0.313 | 0.735 | 0.787 | 0.409 | 0.338 | 0.468 |
| PC-14 | 0.116 | 0.144 | 0.148 | 0.107 | 0.155 | 0.768 | 0.732 | 0.623 | 0.745 | 0.692 | 0.849 | 0.634 | 0.307 | 0.0791 | 0.0776 | 0.81 | 0.781 | 0.154 | 0.0306 | 0.0361 |
| RERF-LC-KJ | 1.24 | 1.18 | 1.13 | 0.918 | 0.5 | 0.747 | 0.791 | 0.654 | 0.716 | 0.827 | 0.532 | 0.315 | 0.154 | 0.139 | 0.192 | 0.579 | 0.328 | 0.205 | 0.192 | 0.236 |
| SK-LU-1 | 0.22 | 0.21 | 0.192 | 0.21 | 0.198 | 0.852 | 0.684 | 0.781 | 0.776 | 0.905 | 0.411 | 0.505 | 0.383 | 0.171 | 0.172 | 0.581 | 0.425 | 0.161 | 0.196 | 0.244 |
| SK-MES-1 | 0.891 | 0.763 | 0.714 | 0.777 | 0.81 | 1.12 | 1.19 | 1.04 | 1.04 | 1.13 | 0.425 | 0.535 | 0.356 | 0.174 | 0.198 | 1.14 | 1.02 | 0.351 | 0.162 | 0.216 |
| SW 1573 | 0.298 | 0.293 | 0.344 | 0.579 | 0.222 | 1.02 | 0.704 | 0.681 | 0.735 | 0.852 | 0.487 | 0.637 | 0.22 | 0.0805 | 0.0657 | 0.48 | 0.521 | 0.14 | 0.0422 | 0.0551 |
